Assay results: paper PMC12144444, “Cooperative inhibition in cytochrome P450 between a substrate and an apparent noncompetitive inhibitor” (The Journal of Biological Chemistry, 2025)

Biological target: CYP105A1 R84A (Streptomyces griseolus, UniProt P18326, R84A)
Conditions: diclofenac 4′-hydroxylation, Lineweaver-Burk and Dixon plots
Method: Ethanol concentration in the final reaction solution was 0.8%. […] After each interval, the reaction was stopped by an addition of 50 μl of acetonitrile into each reaction solution. The solution was centrifuged at 10,000 x g for 15 min, and the resultant supernatant was analyzed by ultra performance liquid chromatography (UPLC) under the following conditions: apparatus, H-Class (Waters Co.); column, ACQUITY UPLC BEH C18 (1.7 μm, 2.1 × 100 mm) (Waters Co.); UV detection, 276 nm; column temperature, 40 °C; flow rate, 0.7 ml/min; injection volume, 10 μl; mobile phase, a linear gradient of 25 to 43% acetonitrile in aqueous solution containing 0.1% trifluoroacetic acid (TFA) for 3 min, followed by 43 to 58% acetonitrile in aqueous solution containing 0.1% TFA for 1 min, followed by 58 to 100% acetonitrile in aqueous solution containing 0.1% TFA for 2 min. […] Two separate experiments were performed to obtain the kobs value for 30 μM diclofenac in 5 μM miconazole. Three separate experiments were performed to obtain all other kobs values. Lineweaver-Burk plot and Dixon plot were prepared from the obtained kobs for each reaction.

Clc1ccc(COC(Cn2ccnc2)c2ccc(Cl)cc2Cl)c(Cl)c1 (centres unmarked) [Miconazole]
Type of inhibition: competitive inhibition

N#C/C(=C1/SCC(c2ccccc2Cl)S1)n1ccnc1 (centres unmarked) [Lanoconazole]
Type of inhibition: noncompetitive inhibition
